For experiment [1], the target named is T1, DDR1 (Homo sapiens, UniProt Q08345). Put plainly: DDR1 cell based assay (PathHunter U2OS DDR1 assay). The conditions noted are these: U2OS-DDR1 cells, bovine Type II Collagen 20 μg/ml. The arrangement: host or cells: U2OS-DDR1 (PathHunter). A digest of the protocol:
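U2OS-DDR1 PathHunter cells preincubated 30 min with compound, then stimulated overnight at 37 °C with 20 μg/ml bovine type II collagen. Luminescent complementation signal read after 1 h detection at room temperature; normalized to vehicle (0%) and collagen-only (100%) controls, IC50 from variable-slope sigmoidal fit.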

A further experiment has as its target T2, DDR2 (Homo sapiens, UniProt Q16832).
T2 sequence (Q16832 22-855): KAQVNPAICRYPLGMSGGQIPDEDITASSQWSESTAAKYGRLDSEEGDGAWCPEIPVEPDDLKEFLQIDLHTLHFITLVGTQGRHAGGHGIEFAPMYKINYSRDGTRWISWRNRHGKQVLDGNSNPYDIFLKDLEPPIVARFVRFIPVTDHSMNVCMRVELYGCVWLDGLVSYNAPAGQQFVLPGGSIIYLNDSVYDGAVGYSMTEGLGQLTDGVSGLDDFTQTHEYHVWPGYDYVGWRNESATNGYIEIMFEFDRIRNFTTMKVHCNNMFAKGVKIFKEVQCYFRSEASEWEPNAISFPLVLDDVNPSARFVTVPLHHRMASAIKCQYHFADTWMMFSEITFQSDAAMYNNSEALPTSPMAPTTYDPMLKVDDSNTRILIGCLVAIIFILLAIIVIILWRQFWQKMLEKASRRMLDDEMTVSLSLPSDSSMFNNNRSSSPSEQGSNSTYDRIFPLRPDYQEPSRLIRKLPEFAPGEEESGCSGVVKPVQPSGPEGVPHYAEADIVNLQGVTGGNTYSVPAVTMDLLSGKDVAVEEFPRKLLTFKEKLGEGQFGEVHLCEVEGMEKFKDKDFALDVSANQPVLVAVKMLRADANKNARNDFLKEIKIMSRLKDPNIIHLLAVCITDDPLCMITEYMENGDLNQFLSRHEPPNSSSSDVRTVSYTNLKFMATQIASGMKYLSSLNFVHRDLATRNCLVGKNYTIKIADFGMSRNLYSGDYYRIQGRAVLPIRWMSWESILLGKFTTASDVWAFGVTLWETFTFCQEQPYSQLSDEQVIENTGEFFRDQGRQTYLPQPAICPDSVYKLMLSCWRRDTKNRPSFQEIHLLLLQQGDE
The experiment in a line: DDR2 binding assay (LanthaScreen Europium Kinase Binding assay). The settings on record: binding assay, 5 nM DDR2, 10 nM Kinase Tracer 178; Ki from IC50 by Cheng-Prusoff; read-out: Ki DDR2. Set-up: purchased Life Technologies. The method in brief: (§1)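 Compounds incubated 1 h at room temperature with 5 nM kinase, Kinase Tracer 178 (20 nM for DDR1, 10 nM for DDR2) and 2 nM Eu-anti-GST antibody in pH 7.5 HEPES/MgCl2/EGTA/BRIJ35 buffer. TR-FRET 665/615 nm ratio read after 340 nm excitation; IC50 from 4-parameter fit, converted to Ki by Cheng-Prusoff.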
For orientation: TR-FRET usually uses a lanthanide donor and a delayed reading to cut background.

The target in experiment [2] is T1, DDR1. The experiment in a line: DDR1 binding assay (LanthaScreen Europium Kinase Binding assay). The arrangement: purchased Carna Biosciences. The settings on record: binding assay, 5 nM DDR1, 20 nM Kinase Tracer 178; Ki from IC50 by Cheng-Prusoff; read-out: Ki DDR1. A digest of the protocol:
as §1

As usually defined, the IC50 is the midpoint of a concentration-inhibition curve. Read a low IC50 as inhibition by little substance. The Ki is a measure of affinity in units of concentration, obtained from inhibition or displacement.

T1 sequence (Q08345 19-913): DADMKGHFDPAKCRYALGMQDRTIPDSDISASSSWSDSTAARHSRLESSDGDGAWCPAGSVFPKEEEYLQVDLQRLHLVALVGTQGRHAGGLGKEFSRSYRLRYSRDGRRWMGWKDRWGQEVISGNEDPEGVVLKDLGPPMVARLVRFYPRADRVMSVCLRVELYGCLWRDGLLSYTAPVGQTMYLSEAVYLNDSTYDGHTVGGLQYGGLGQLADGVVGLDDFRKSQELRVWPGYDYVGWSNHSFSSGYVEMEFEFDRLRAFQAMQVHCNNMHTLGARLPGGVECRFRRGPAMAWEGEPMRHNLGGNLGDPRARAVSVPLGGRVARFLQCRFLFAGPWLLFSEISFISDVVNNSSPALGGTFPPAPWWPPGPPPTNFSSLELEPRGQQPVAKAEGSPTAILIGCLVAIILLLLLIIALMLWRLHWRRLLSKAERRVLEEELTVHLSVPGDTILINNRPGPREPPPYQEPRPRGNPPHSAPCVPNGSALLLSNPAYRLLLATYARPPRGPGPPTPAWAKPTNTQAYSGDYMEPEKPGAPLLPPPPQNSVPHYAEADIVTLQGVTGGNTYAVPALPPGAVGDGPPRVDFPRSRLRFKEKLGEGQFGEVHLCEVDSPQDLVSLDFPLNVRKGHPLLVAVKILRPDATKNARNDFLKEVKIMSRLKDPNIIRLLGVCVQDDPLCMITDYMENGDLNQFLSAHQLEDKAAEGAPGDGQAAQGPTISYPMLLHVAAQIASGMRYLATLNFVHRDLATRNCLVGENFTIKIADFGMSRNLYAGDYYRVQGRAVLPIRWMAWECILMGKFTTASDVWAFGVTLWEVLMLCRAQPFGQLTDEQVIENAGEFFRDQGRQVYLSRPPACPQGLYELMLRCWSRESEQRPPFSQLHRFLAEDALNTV

Molecule `Cc1cn(-c2cc(NC(=O)c3csc4c3CCN(Cc3cnc5ccccn35)C4)cc(C(F)(F)F)c2)cn1` [Example 65, 6-(imidazo[1,2-a]pyridin-3-ylmethyl)-N-(3-(4-methyl-11H-imidazol-1-yl)-5-(trifluoromethyl)phenyl)-4,5,6,7-tetrahydrothieno[2,3-c]pyridine-3-carboxamide] came in with a 50% inhibitory concentration (IC50) against DDR1 [1] of 50 to 80 nM. Also, the Ki at DDR2 and at DDR1 [2] was below 25 nM throughout.
Turning to `O=C(Nc1cccc(C(F)(F)F)c1)c1csc2c1CCN(C(=O)c1cnc3[nH]ccc3c1)C2` [Example 68, 6-(1H-pyrrolo[2,3-b]pyridine-5-carbonyl)-N-(3-(trifluoromethyl)phenyl)-4,5,6,7-tetrahydrothieno[2,3-c]pyridine-3-carboxamide], the IC50 against DDR1 [1] fell in the range of 25 to 50 nM. In addition, the Ki at DDR2 and at DDR1 [2] was below 25 nM each time.
`Cc1ccc(-n2nc(C(C)(C)C)cc2NC(=O)c2csc3c2CCN(Cc2ccnc4[nH]ccc24)C3)cc1` [Example 76, 6-((1H-pyrrolo[2,3-b]pyridin-4-yl)methyl)-N-(3-(tert-butyl)-1-(p-tolyl)-1H-pyrazol-5-yl)-4,5,6,7-tetrahydrothieno[2,3-c]pyridine-3-carboxamide] displayed an IC50 against DDR1 [1] of 50 to 80 nM. Moreover, the Ki on DDR2 was 25 to 50 nM; on DDR1 [2] it was below 25 nM.
Taken in the same sequence, the figures for `Cn1nc(C(C)(C)C)cc1NC(=O)c1csc2c1CCN(Cc1cnc3[nH]ncc3c1)C2` [Example 77, 6-((1H-pyrazolo[3,4-b]pyridin-5-yl)methyl)-N-(3-(tert-butyl)-1-methyl-1H-pyrazol-5-yl)-4,5,6,7-tetrahydrothieno[2,3-c]pyridine-3-carboxamide] were below 25 nM, below 25 nM and below 25 nM.
Turning to `Cc1ccn2c(C(=O)N3CCc4c(C(=O)Nc5cc(C(C)(C)C)nn5C)csc4C3)cnc2c1` [Example 79, N-(5-tert-butyl-2-methyl-pyrazol-3-yl)-6-(7-methylimidazo[1,2-a]pyridine-3-carbonyl)-5,7-dihydro-4H-thieno[2,3-c]pyridine-3-carboxamide], the IC50 on DDR1 [1] was in the range of 25 to 50 nM. The Ki on DDR2 and at DDR1 [2] was below 25 nM in each case.
Take `Cc1ccc2ncc(C(=O)N3CCc4c(C(=O)Nc5cc(C(C)(C)C)nn5C)csc4C3)n2c1` [Example 80, N-(3-(tert-butyl)-1-methyl-1H-pyrazol-5-yl)-6-(6-methylimidazo[1,2-a]pyridine-3-carbonyl)-4,5,6,7-tetrahydrothieno[2,3-c]pyridine-3-carboxamide]: at DDR1 [1], the IC50 was in the range of 25 to 50 nM. The Ki on DDR2 and on DDR1 [2] was below 25 nM each time.
On to `Cn1nc(C(C)(C)C)cc1NC(=O)c1csc2c1CCN(C(=O)c1cnc3ccc(F)cn13)C2` [Example 81, N-(3-(tert-butyl)-1-methyl-1H-pyrazol-5-yl)-6-(6-fluoroimidazo[1,2-a]pyridine-3-carbonyl)-4,5,6,7-tetrahydrothieno[2,3-c]pyridine-3-carboxamide], for which the 50% inhibitory concentration (IC50) against DDR1 [1] lay in the range of 50 to 80 nM. Further, the Ki at DDR2 and at DDR1 [2] was below 25 nM each time.
On DDR1 [1], `Cn1nc(C(C)(C)C)cc1NC(=O)c1csc2c1CCN(C(=O)c1cnc3ccc(C(F)(F)F)cn13)C2` [Example 82, N-(3-(tert-butyl)-1-methyl-1H-pyrazol-5-yl)-6-(6-(trifluoromethyl)imidazo[1,2-a]pyridine-3-carbonyl)-4,5,6,7-tetrahydrothieno[2,3-c]pyridine-3-carboxamide] yielded an IC50 of 25 to 50 nM. The Ki on DDR2 and at DDR1 [2] was below 25 nM in each case.
On DDR1 [1], `Cn1nc(C(C)(C)C)cc1NC(=O)c1csc2c1CCN(C(=O)c1cnc3ccc(Cl)cn13)C2` [Example 83, N-(3-(tert-butyl)-1-methyl-1H-pyrazol-5-yl)-6-(6-chloroimidazo[1,2-a]pyridine-3-carbonyl)-4,5,6,7-tetrahydrothieno[2,3-c]pyridine-3-carboxamide] had an IC50 of 25 to 50 nM. For the same molecule, the Ki on DDR2 and on DDR1 [2] was below 25 nM each time.
At DDR1 [1], `O=C(Nc1cccc(C(F)(F)F)c1)c1csc2c1CCN(Cc1cnc3cccnn13)C2` [Example 87, 6-(imidazo[1,2-b]pyridazin-3-ylmethyl)-N-(3-(trifluoromethyl)phenyl)-4,5,6,7-tetrahydrothieno[2,3-c]pyridine-3-carboxamide] had an IC50 of 50 to 80 nM. Besides, the Ki on DDR2 and at DDR1 [2] was below 25 nM each time.
With `O=C(Nc1cccc(C(F)(F)F)c1)c1csc2c1CCN(Cc1cnc3ccnn3c1)C2` [Example 88, 6-(pyrazolo[1,5-a]pyrimidin-6-ylmethyl)-N-(3-(trifluoromethyl)phenyl)-4,5,6,7-tetrahydrothieno[2,3-c]pyridine-3-carboxamide], the IC50 against DDR1 [1] is below 25 nM. Moreover, the inhibitory constant (Ki) on DDR2 and on DDR1 [2] was below 25 nM in each case.
On DDR1 [1], `O=C(Nc1cccc(C(F)(F)F)c1)c1csc2c1CCN(Cc1cnn3cccnc13)C2` [Example 89, 6-(pyrazolo[1,5-a]pyrimidin-3-ylmethyl)-N-(3-(trifluoromethyl)phenyl)-4,5,6,7-tetrahydrothieno[2,3-c]pyridine-3-carboxamide] came in with an IC50 below 25 nM. Further, the inhibitory constant (Ki) at DDR2 and at DDR1 [2] was below 25 nM each time.
`O=C(Nc1cccc(C(F)(F)F)c1)c1csc2c1CCN(C(=O)c1cnc3[nH]ncc3c1)C2` [Example 91, 6-(1H-pyrazolo[3,4-b]pyridine-5-carbonyl)-N-(3-(trifluoromethyl)phenyl)-4,5,6,7-tetrahydrothieno[2,3-c]pyridine-3-carboxamide] displayed a 50% inhibitory concentration (IC50) at DDR1 [1] below 25 nM. For the same molecule, the Ki at DDR2 and at DDR1 [2] was below 25 nM in each case.
As to `O=C(Nc1cccc(C(F)(F)F)c1)c1csc2c1CCN(C(=O)c1cnc3cccnn13)C2` [Example 92, 6-(imidazo[1,2-b]pyridazine-3-carbonyl)-N-(3-(trifluoromethyl)phenyl)-4,5,6,7-tetrahydrothieno[2,3-c]pyridine-3-carboxamide], at DDR1 [1], the IC50 is below 25 nM. For the same molecule, the Ki on DDR2 and on DDR1 [2] was below 25 nM throughout.
The molecule `O=C(Nc1cccc(C(F)(F)F)c1)c1csc2c1CCN(C(=O)c1cnn3cccnc13)C2` [Example 94, 6-(pyrazolo[1,5-a]pyrimidine-3-carbonyl)-N-(3-(trifluoromethyl)phenyl)-4,5,6,7-tetrahydrothieno[2,3-c]pyridine-3-carboxamide] registered an IC50 against DDR1 [1] of 50 to 80 nM. Moreover, the Ki at DDR2 and at DDR1 [2] was below 25 nM in each case.
Consider `O=C(Nc1cccc(C(F)(F)F)c1)c1csc2c1CCN(C(=O)c1cnc3n1CCCC3)C2` [Example 95, 6-(5,6,7,8-tetrahydroimidazo[1,2-a]pyridine-3-carbonyl)-N-(3-(trifluoromethyl)phenyl)-4,5,6,7-tetrahydrothieno[2,3-c]pyridine-3-carboxamide], for which the IC50 at DDR1 [1] is below 25 nM. Also, the Ki at DDR2 and at DDR1 [2] was below 25 nM each time.
In turn, `O=C(Nc1cccc(C(F)(F)F)c1)c1csc2c1CCN(C(=O)c1cnc3n1CCOC3)C2` [Example 96, 6-(5,6-dihydro-8H-imidazo[2,1-c][1,4]oxazine-3-carbonyl)-N-(3-(trifluoromethyl)phenyl)-4,5,6,7-tetrahydrothieno[2,3-c]pyridine-3-carboxamide] yielded an IC50 against DDR1 [1] below 25 nM. In addition, the Ki at DDR2 and on DDR1 [2] was below 25 nM throughout.
On DDR1 [1], `O=C(Nc1cc(F)cc(C(F)(F)F)c1)c1csc2c1CCN(C(=O)c1cnn3cccnc13)C2` [Example 97, N-(3-fluoro-5-(trifluoromethyl)phenyl)-6-(pyrazolo[1,5-a]pyrimidine-3-carbonyl)-4,5,6,7-tetrahydrothieno[2,3-c]pyridine-3-carboxamide] showed a half-inhibitory concentration (IC50) below 25 nM. In addition, the Ki on DDR2 and on DDR1 [2] was below 25 nM each time.

The values above are taken from US20240391936A1, “TETRAHYDROTHIENO PYRIDINE DERIVATIVES AS DDRS INHIBITORS” (CHIESI FARMACEUTICI S.P.A., priority 2021, published 2024).
